Experimental data from PubChem BioAssay AID248 (DTP/NCI, 2004).
“And” between values parts separate entries of the source, which are not always exact repeats. Equal entries are not always repeated. Toxic doses and inconclusive results are not listed.

Tested on: L1210 leukemia ip in BDF1 mice, survival T/C
Assay: NCI In Vivo Anticancer Drug Screen. Data for tumor model L1210 Leukemia (intraperitoneal) in B6D2F1 (BDF1) mice
Conditions: endpoint: mean survival time, higher = longer survival
Summary of the method: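 In this screen, tumor-bearing mice given compound are compared to those given vehicle, and their survival values are reported as a treated-to-control quotient.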

[1] = dose: 100.0 mg/kg/injection, schedule: Q01DX001 (ip), vehicle: saline
[2] = dose: 200.0 mg/kg/injection, schedule: Q01DX001 (ip), vehicle: saline
[3] = dose: 400.0 mg/kg/injection, schedule: Q01DX001 (ip), vehicle: saline
[4] = dose: 100.0 mg/kg/injection, schedule: Q04DX003 (ip), vehicle: Klucel (hydroxypropylcellulose) (HPC)
[5] = dose: 200.0 mg/kg/injection, schedule: Q04DX003 (ip), vehicle: Klucel (hydroxypropylcellulose) (HPC)
[6] = dose: 400.0 mg/kg/injection, schedule: Q04DX003 (ip), vehicle: Klucel (hydroxypropylcellulose) (HPC)
[7] = dose: 100.0 mg/kg/injection, schedule: Q04DX002 (ip), vehicle: Klucel (hydroxypropylcellulose) (HPC)
[8] = dose: 200.0 mg/kg/injection, schedule: Q04DX002 (ip), vehicle: Klucel (hydroxypropylcellulose) (HPC)
[9] = dose: 400.0 mg/kg/injection, schedule: Q04DX002 (ip), vehicle: Klucel (hydroxypropylcellulose) (HPC)

Question: How did the T/C (dose: 50.0 mg/kg/injection, schedule: Q01DX009 (ip), vehicle: saline with Tween-80) turn out when `c1ccc(-c2cc(-c3ccccc3)c(-c3ccccc3)c(-c3ccccc3)c2-c2ccccc2)cc1` was run?
Answer: Its T/C is 87 % of control.

Question: What about the T/C (dose: 100.0 mg/kg/injection, schedule: Q01DX009 (ip), vehicle: saline with Tween-80) of the same compound?
Answer: Its T/C is 93 % of control.

Question: And the T/C (dose: 200.0 mg/kg/injection, schedule: Q01DX009 (ip), vehicle: saline with Tween-80)?
Answer: Its T/C is 93 % of control.

Question: For `CC1NC(=O)OC12CCCCC2` (stereo unspecified), which T/C (dose: 100.0 mg/kg/injection, schedule: Q01DX001 (ip), vehicle: saline with Tween-80) is on record?
Answer: The T/C was 96 % of control.

Question: What about the T/C (dose: 200.0 mg/kg/injection, schedule: Q01DX001 (ip), vehicle: saline with Tween-80) of the same compound?
Answer: Its T/C is 92 % of control.

Question: And the T/C (dose: 400.0 mg/kg/injection, schedule: Q01DX001 (ip), vehicle: saline with Tween-80)?
Answer: Its T/C is 92 % of control.

Question: Which T/C [1] does the source give for `CC1(O)CCCCC1` here?
Answer: Its T/C is 102 % of control.

Question: And the T/C [2]?
Answer: The T/C was 104 % of control.

Question: And the T/C [3]?
Answer: Its T/C is 96 % of control.

Question: For `S=C1NC2CCCc3ccccc3C2O1` (stereo unspecified), which T/C [4] is on record?
Answer: The T/C was 111 % of control.

Question: And the T/C [5]?
Answer: Its T/C is 113 % of control.

Question: And the T/C [6]?
Answer: Its T/C is 107 % of control.

Question: How did the T/C (dose: 100.0 mg/kg/injection, schedule: Q01DX001 (ip), vehicle: Klucel (hydroxypropylcellulose) (HPC)) turn out when `O=C(Nc1ncccc1[N+](=O)[O-])C(Cl)(Cl)Cl` was run?
Answer: Its T/C is 101 % of control.

Question: And the T/C (dose: 100.0 mg/kg/injection, schedule: Q01DX009 (ip), vehicle: Klucel (hydroxypropylcellulose) (HPC))?
Answer: Its T/C is 115 % of control.

Question: What about the T/C [7] of the same compound?
Answer: Its T/C is 100 % of control and 88 % of control.

Question: And the T/C [4]?
Answer: The T/C was 95 % of control.

Question: And the T/C (dose: 200.0 mg/kg/injection, schedule: Q01DX001 (ip), vehicle: Klucel (hydroxypropylcellulose) (HPC))?
Answer: Its T/C is 100 % of control.

Question: What about the T/C (dose: 200.0 mg/kg/injection, schedule: Q01DX009 (ip), vehicle: Klucel (hydroxypropylcellulose) (HPC)) of the same compound?
Answer: Its T/C is 108 % of control.

Question: And the T/C [8]?
Answer: Its T/C is 103 % of control and 91 % of control.

Question: What about the T/C [5] of the same compound?
Answer: The T/C was 106 % of control.

Question: What about the T/C (dose: 400.0 mg/kg/injection, schedule: Q01DX001 (ip), vehicle: Klucel (hydroxypropylcellulose) (HPC)) of the same compound?
Answer: The T/C was 101 % of control.

Question: What about the T/C [9] of the same compound?
Answer: Its T/C is 100 % of control and 103 % of control.

Question: What about the T/C [6] of the same compound?
Answer: The T/C was 95 % of control.

Question: `CCCCc1c(C)nc(N)[nH]c1=O` was tested. Which T/C [7] did it give?
Answer: The T/C was 104 % of control.

Question: And the T/C [8]?
Answer: Its T/C is 100 % of control.

Question: And the T/C [9]?
Answer: Its T/C is 100 % of control.

Question: What does the source list for `O=S(=O)(/C=C/c1ccccc1)N1CCCCC1`?
Answer: T/C [1]: 103 % of control; T/C [2]: 102 % of control; T/C [3]: 102 % of control

Question: `CCCCC(=O)N(c1ccc(Nc2c3ccccc3nc3cc([N+](=O)[O-])ccc23)cc1)S(C)(=O)=O` was tested. Which T/C (dose: 3.18 mg/kg/injection, schedule: Q01DX009 (sc), vehicle: saline) did it give?
Answer: The T/C was 119 % of control.

Question: And the T/C (dose: 6.25 mg/kg/injection, schedule: Q01DX009 (ip), vehicle: saline with Tween-80)?
Answer: Its T/C is 160 % of control.

Question: What about the T/C (dose: 16.5 mg/kg/injection, schedule: Q04DX003 (ip), vehicle: saline with Tween-80) of the same compound?
Answer: The T/C was 150 % of control.

Question: What about the T/C (dose: 25.0 mg/kg/injection, schedule: Q01DX009 (ip), vehicle: saline with Tween-80) of the same compound?
Answer: The T/C was 95 % of control.

Question: What about the T/C (dose: 25.0 mg/kg/injection, schedule: Q01DX009 (sc), vehicle: saline) of the same compound?
Answer: Its T/C is 179 % of control.

Question: And the T/C (dose: 25.0 mg/kg/injection, schedule: Q04DX003 (ip), vehicle: saline with Tween-80)?
Answer: The T/C was 153 % of control.

Question: And the T/C (dose: 44.0 mg/kg/injection, schedule: Q04DX003 (ip), vehicle: saline)?
Answer: The T/C was 168 % of control.

Question: And the T/C (dose: 50.0 mg/kg/injection, schedule: Q04DX003 (ip), vehicle: saline with Tween-80)?
Answer: Its T/C is 242 % of control.

Question: And the T/C (dose: 67.0 mg/kg/injection, schedule: Q04DX003 (ip), vehicle: saline)?
Answer: Its T/C is 92 % of control.

Question: What about the T/C (dose: 100.0 mg/kg/injection, schedule: Q04DX003 (ip), vehicle: saline with Tween-80) of the same compound?
Answer: Its T/C is 188 % of control.

Question: What about the T/C (dose: 100.0 mg/kg/injection, schedule: Q04DX003 (ip), vehicle: saline) of the same compound?
Answer: The T/C was 103 % of control.

Question: What about the T/C (dose: 200.0 mg/kg/injection, schedule: Q04DX003 (ip), vehicle: saline with Tween-80) of the same compound?
Answer: Its T/C is 100 % of control.
